Assay results published in patent publication US9271978B2 (Zenith Epigenetics Corp., priority 2012, dated 2016).

Key:
[1] = system: c-myc; experiment: Inhibition of c-myc expression in MV4-11 cells (mRNA, real-time PCR); assay type: cell-based; parameters: key: Active: Compounds with an IC50 value less than 30 μM were deemed to be active.; Not Active: Compounds with an IC50 value less than 30 μM were deemed to be active; conditions: Human AML MV4-11 cells, 3 h incubation
Procedure, shortened: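 MV4-11 cells (2.5×10^4) treated with compound or 0.1% DMSO for 3 h at 37 °C. c-myc mRNA measured by RT real-time PCR duplexed with cyclophilin. IC50 from dose–response curve.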

[2] = target: T1, Brd4 bromodomain 1 (BRD4(1)) (Homo sapiens, UniProt O60885); experiment: Inhibition of tetra-acetylated histone H4 binding to Brd4 bromodomain 1 (TR-FRET); parameters: key: Active: Compounds with an IC50 value less than 30 μM were deemed to be active.; Not Active: Compounds with an IC50 value less than 30 μM were deemed to be active; conditions: tetra-acetylated histone H4 peptide, active = IC50 <30 μM
T1 construct: Illustrative results with the first bromodomain of Brd4; made in house; host or cells: E. coli BL21 (DE3)
Procedure, shortened: (§1)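 N-terminally His-tagged bromodomains (200 nM), expressed in E. coli, were incubated with biotinylated tetra-acetylated histone H4 peptide (25-50 nM), Eu-cryptate streptavidin and XL665 anti-His antibody in HEPES pH 7.4 buffer with KF, 0.2% DMSO, 2 h at room temperature. Inhibition read as decreased 665/620 nm TR-FRET; IC50 from dose-response curves.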

[3] = system: hIL-6 mRNA; experiment: Inhibition of hIL-6 mRNA transcription in U937 cells; assay type: cell-based, human; parameters: key: Active: Compounds with an IC50 value less than 30 μM were deemed to be active.; Not Active: Compounds with an IC50 value less than 30 μM were deemed to be active; conditions: LPS stimulation, active = IC50 <30 μM
Procedure, shortened: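 U937 cells differentiated 3 days with 60 ng/mL PMA, pretreated 1 h with compound, then stimulated with 1 ug/mL E. coli LPS for 3 h at 37° C. hIL-6 mRNA quantified by one-step qRT-PCR, Ct normalized to internal control, expressed as fold induction relative to control.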

[4] = system: human AML MV-4-11 (CRL-9591) cells; experiment: Inhibition of cell proliferation in MV4-11 cells; assay type: cell-based; parameters: key: Active: Compounds with an IC50 value less than 30 μM were deemed to be active.; Not Active: Compounds with an IC50 value less than 30 μM were deemed to be active; conditions: human AML MV-4-11 cells, 72 h; active = IC50 <30 μM
Procedure, shortened: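 Exponentially growing MV-4-11 cells (5×10^4/well) were treated immediately with two-fold dilutions of compound from 30 μM to 0.2 μM, in triplicate, for 72 h at 37° C, 5% CO2. Viability was measured by MTS absorbance at 490 nm after 3–4 h. Proliferation relative to DMSO after blank correction gave IC50.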

[5] = target: T2, second bromodomain of Brd2 (BRD2(2)) (Homo sapiens, UniProt P25440); experiment: Inhibition of tetra-acetylated histone H4 binding to Brd2 bromodomain 2 (TR-FRET); parameters: key: Active: Compounds with an IC50 value less than 30 μM were deemed to be active.; Not Active: Compounds with an IC50 value less than 30 μM were deemed to be active; conditions: tetra-acetylated histone H4 peptide, active = IC50 <30 μM
T2 construct: made in house; host or cells: E. coli BL21 (DE3)
Procedure, shortened: as §1

[6] = system: ApoA-I mRNA; experiment: Up-regulation of hApoA-1 mRNA transcription in Huh7 cells; assay type: cell-based, human; parameters: key: Active: Compounds with an EC170 value less than 30 μM were deemed to be active; conditions: 48 h treatment, ApoA-I mRNA by real-time PCR, Active = EC170 less than 30 μM
Procedure, shortened: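 Huh7 cells treated with compound for 48 h. ApoA-I mRNA was then quantified in captured mRNA by one-step real-time RT-PCR. Fold induction calculated from Ct values relative to the matching DMSO control; EC170 is the concentration for 170% of control expression.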

T2 sequence (P25440 344-453 limits assumed): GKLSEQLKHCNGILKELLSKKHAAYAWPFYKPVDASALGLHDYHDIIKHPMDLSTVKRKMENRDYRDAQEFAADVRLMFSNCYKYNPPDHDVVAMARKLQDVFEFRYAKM

Structure (SMILES)	c-myc activity (IC50 <30 μM) [1]	FRET activity (IC50 <30 μM) BRD4(1) [2]	IL-6 activity (IC50 <30 μM) [3]	Cell Proliferation activity (IC50 <30 μM) [4]	FRET activity (IC50 <30 μM) BRD2(2) [5]	ApoA-1 activity (EC170 <30 μM) [6]
Cc1noc(C)c1-c1ccc(=O)n(Cc2cccc3[nH]ccc23)c1 [Example 149, 1-((1H-Indol-4-yl)methyl)-5-(3,5-dimethylisoxazol-4-yl)pyridin-2(1H)-one]	Active	Active	Active	Active	Active	Active
Cc1noc(C)c1-c1ccc(=O)n(C(C)c2cccc(F)c2)c1 (stereo not drawn) [Example 104, 5-(3,5-Dimethylisoxazol-4-yl)-1-(1-(3-fluorophenyl)ethyl)pyridin-2(1H)-one]	Active	Active	Active	Active	Active	Active
Cc1noc(C)c1-c1ccc(=O)n(C(C)c2ccc(Cl)cc2)c1 (stereo not drawn) [Example 105, 1-(1-(4-Chlorophenyl)ethyl)-5-(3,5-dimethylisoxazol-4-yl)pyridin-2(1H)-one]	Active	Active	Active	Active	Active	Active
Cc1noc(C)c1-c1ccc(=O)n(Cc2cccc3cccnc23)c1 [Example 47, 5-(3,5-Dimethylisoxazol-4-yl)-1-(quinolin-8-ylmethyl)pyridin-2(1H)-one]	Active	Active	Active	Active	Active	Active
Cc1noc(C)c1-c1ccc(=O)n(CC2CCC2)c1 [Example 49, 1-(Cyclobutylmethyl)-5-(3,5-dimethylisoxazol-4-yl)pyridin-2(1H)-one]	Active	Active	Active	Active	Active	Active
COc1ccccc1Cn1cc(-c2c(C)noc2C)ccc1=O [Example 162, 5-(3,5-Dimethylisoxazol-4-yl)-1-(2-methoxybenzyl)pyridin-2(1H)-one]	Active	Active	Active	Active	Active	Active
Cc1noc(C)c1-c1ccc(=O)n([C@H](C)c2ccccc2)n1 [Example 108, (R)-6-(3,5-Dimethylisoxazol-4-yl)-2-(1-phenylethyl)pyridazin-3(2H)-one]	Active	Active	Active	Active	Active	Active
Cc1noc(C)c1-c1ccc(=O)n(Cc2ccc3[nH]cnc3c2)c1 [Example 146, 1-((1H-benzo[d]imidazol-5-yl)methyl)-5-(3,5-dimethylisoxazol-4-yl)pyridin-2(1H)-one]	Active	Active	Active	Not Active	Active	Active
Cc1noc(C)c1-c1ccc(=O)n(CCOc2ccccc2)c1 [Example 51, 5-(3,5-Dimethylisoxazol-4-yl)-1-(2-phenoxyethyl)pyridin-2(1H)-one]	Not Active	Active	Active	Not Active	Active	Active

Continued, in another order:

c-myc activity (IC50 <30 μM) [1]	FRET activity (IC50 <30 μM) BRD4(1) [2]	IL-6 activity (IC50 <30 μM) [3]	Cell Proliferation activity (IC50 <30 μM) [4]	FRET activity (IC50 <30 μM) BRD2(2) [5]	Structure (SMILES)	ApoA-1 activity (EC170 <30 μM) [6]
Not Active	Active	Active	Active	Active	Cc1noc(C)c1-c1ccc(=O)n(Cc2ccccc2)n1 [Example 14, 2-Benzyl-6-(3,5-dimethylisoxazol-4-yl)pyridazin-3(2H)-one]	Active
Active	Active	Active	Not Active	Active	COc1cc(-c2ccc(=O)n(Cc3cccc(NC(C)=O)c3)n2)cc(OC)c1OC [Example 17, N-(3-((6-Oxo-3-(3,4,5-trimethoxyphenyl)pyridazin-1(6H)-yl)methyl)phenyl)acetamide]	Active
Active	Active	Active	Active	Active	COc1cc(Nc2ccc(=O)n(Cc3ccccc3)n2)cc(OC)c1OC [Example 54, 2-Benzyl-6-((3,4,5-trimethoxyphenyl)amino)pyridazin-3(2H)-one]	Active
Not Active	Active	Active	Not Active	Active	COc1cc(-c2ccc(=O)n(Cc3ccccc3)c2)cc(OC)c1OC [Example 52, 1-Benzyl-5-(3,4,5-trimethoxyphenyl)pyridin-2(1H)-one]	Active
Active	Active	Active	Not Active	Active	COc1ccc(Nc2ccc(=O)n(Cc3ccccc3)n2)nc1OC [Example 99, 2-Benzyl-6-((5,6-dimethoxypyridin-2-yl)amino)pyridazin-3(2H)-one]	Active
Not Active	Active	Active	Not Active	Active	COc1ccc(Nc2ccc(=O)n(Cc3ccccc3)n2)cc1OC [Example 60, 2-Benzyl-6-((3,4-dimethoxyphenyl)amino)pyridazin-3(2H)-one]	Active
Not Active	Active	Active	Not Active	Active	COc1ccc(Cn2nc(-c3cc(OC)c(OC)c(OC)c3)ccc2=O)cc1 [Example 117, 2-(4-Methoxybenzyl)-6-(3,4,5-trimethoxyphenyl)pyridazin-3(2H)-one]	Active
Not Active	Active	Active	Active	Active	COc1cc(-c2ccc(=O)n(Cc3ccccc3C#N)c2)cc(OC)c1OC [Example 53, 2-((2-Oxo-5-(3,4,5-trimethoxyphenyl)pyridin-1(2H)-yl)methyl)benzonitrile]	Active
